Measured values taken from US10870647B2, “Imidazopyridine derivative, method for preparing same, and pharmaceutical composition containing same as active ingredient for preventing or treating cancer” (DAEGU-GYEONGBUK MEDICAL INNOVATION FOUNDATION, priority 2016, dated 2020).

Key:
Test in all cases: Kinase selectivity, scanMAX Kinase assay panel (DiscoverX), % control at 1 uM
Type in all cases: binding
[1] = target: T1, scanMAX Kinase assay panel (Homo sapiens, UniProt Q16832); conditions: DDR2; 1 uM; read-out: Percent Control (%)
T1 construct: purchased DiscoverX
T1 sequence (Q16832 22-855): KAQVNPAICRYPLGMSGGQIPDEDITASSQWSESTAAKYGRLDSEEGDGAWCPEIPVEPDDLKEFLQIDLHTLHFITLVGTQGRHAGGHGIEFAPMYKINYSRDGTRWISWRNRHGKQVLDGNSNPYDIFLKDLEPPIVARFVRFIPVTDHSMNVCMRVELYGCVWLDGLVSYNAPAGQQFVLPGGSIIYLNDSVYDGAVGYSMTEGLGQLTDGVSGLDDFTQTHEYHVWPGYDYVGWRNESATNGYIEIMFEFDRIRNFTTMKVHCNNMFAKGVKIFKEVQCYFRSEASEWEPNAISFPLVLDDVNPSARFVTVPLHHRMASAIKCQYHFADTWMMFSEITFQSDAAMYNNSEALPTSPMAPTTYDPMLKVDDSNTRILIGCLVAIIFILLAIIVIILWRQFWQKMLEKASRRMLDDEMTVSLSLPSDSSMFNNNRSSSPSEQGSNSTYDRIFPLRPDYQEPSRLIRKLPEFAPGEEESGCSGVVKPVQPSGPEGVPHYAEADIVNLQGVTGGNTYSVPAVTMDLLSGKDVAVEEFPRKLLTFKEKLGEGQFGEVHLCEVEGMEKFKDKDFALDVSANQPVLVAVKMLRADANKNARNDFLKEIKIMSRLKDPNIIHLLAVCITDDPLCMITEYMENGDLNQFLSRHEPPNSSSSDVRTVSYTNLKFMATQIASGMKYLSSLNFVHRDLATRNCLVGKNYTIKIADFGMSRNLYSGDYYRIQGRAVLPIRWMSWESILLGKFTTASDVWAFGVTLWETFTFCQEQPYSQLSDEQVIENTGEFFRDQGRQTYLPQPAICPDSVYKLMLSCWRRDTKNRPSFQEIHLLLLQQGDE
Method in brief: (§1)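 Binding across the scanMAX kinase panel was tested at 1 uM compound. % control = (compound − positive control)/(negative control − positive control) × 100; below 35 counted as active.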

[2] = target: T2, scanMAX Kinase assay panel (Homo sapiens, UniProt Q9UL54); conditions: TAOK2; 1 uM; read-out: Percent Control (%)
T2 construct: purchased DiscoverX
T2 sequence (Q9UL54 1-1235): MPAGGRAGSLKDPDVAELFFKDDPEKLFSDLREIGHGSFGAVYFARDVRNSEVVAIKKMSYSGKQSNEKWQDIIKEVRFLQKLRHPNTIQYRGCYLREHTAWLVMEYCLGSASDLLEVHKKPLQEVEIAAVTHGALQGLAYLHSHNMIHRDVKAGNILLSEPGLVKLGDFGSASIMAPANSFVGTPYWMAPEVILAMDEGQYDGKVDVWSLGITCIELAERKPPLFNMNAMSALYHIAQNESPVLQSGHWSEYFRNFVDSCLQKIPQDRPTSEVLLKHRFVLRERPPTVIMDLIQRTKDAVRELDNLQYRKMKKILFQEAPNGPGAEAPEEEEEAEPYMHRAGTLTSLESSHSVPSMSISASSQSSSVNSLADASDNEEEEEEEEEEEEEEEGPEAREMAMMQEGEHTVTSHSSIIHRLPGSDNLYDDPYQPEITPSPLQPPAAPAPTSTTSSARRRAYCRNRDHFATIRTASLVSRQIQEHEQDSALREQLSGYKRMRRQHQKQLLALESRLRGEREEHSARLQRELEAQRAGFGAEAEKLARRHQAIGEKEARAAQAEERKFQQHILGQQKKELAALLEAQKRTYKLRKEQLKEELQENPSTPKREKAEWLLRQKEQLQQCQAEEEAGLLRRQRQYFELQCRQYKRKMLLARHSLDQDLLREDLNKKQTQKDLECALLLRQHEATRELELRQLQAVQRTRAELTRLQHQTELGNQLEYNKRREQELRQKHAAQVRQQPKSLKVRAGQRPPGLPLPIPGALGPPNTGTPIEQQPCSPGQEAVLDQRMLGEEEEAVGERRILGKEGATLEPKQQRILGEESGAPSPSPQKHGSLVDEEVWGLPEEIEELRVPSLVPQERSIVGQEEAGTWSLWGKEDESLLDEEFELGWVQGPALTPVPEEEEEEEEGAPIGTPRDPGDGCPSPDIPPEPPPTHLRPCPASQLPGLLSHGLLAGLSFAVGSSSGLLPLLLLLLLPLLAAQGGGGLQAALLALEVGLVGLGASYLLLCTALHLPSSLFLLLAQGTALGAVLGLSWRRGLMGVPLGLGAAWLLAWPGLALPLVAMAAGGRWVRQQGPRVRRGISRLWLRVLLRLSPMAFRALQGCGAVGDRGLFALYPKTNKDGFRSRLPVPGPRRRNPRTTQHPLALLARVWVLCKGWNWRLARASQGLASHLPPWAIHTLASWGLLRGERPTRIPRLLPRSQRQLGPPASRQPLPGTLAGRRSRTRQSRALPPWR
Method in brief: as §1

[3] = target: T3, scanMAX Kinase assay panel (Homo sapiens, UniProt Q9Y3S1); conditions: WNK2; 1 uM; read-out: Percent Control (%)
T3 construct: purchased DiscoverX
Method in brief: as §1

T3 sequence (Q9Y3S1 whole entry): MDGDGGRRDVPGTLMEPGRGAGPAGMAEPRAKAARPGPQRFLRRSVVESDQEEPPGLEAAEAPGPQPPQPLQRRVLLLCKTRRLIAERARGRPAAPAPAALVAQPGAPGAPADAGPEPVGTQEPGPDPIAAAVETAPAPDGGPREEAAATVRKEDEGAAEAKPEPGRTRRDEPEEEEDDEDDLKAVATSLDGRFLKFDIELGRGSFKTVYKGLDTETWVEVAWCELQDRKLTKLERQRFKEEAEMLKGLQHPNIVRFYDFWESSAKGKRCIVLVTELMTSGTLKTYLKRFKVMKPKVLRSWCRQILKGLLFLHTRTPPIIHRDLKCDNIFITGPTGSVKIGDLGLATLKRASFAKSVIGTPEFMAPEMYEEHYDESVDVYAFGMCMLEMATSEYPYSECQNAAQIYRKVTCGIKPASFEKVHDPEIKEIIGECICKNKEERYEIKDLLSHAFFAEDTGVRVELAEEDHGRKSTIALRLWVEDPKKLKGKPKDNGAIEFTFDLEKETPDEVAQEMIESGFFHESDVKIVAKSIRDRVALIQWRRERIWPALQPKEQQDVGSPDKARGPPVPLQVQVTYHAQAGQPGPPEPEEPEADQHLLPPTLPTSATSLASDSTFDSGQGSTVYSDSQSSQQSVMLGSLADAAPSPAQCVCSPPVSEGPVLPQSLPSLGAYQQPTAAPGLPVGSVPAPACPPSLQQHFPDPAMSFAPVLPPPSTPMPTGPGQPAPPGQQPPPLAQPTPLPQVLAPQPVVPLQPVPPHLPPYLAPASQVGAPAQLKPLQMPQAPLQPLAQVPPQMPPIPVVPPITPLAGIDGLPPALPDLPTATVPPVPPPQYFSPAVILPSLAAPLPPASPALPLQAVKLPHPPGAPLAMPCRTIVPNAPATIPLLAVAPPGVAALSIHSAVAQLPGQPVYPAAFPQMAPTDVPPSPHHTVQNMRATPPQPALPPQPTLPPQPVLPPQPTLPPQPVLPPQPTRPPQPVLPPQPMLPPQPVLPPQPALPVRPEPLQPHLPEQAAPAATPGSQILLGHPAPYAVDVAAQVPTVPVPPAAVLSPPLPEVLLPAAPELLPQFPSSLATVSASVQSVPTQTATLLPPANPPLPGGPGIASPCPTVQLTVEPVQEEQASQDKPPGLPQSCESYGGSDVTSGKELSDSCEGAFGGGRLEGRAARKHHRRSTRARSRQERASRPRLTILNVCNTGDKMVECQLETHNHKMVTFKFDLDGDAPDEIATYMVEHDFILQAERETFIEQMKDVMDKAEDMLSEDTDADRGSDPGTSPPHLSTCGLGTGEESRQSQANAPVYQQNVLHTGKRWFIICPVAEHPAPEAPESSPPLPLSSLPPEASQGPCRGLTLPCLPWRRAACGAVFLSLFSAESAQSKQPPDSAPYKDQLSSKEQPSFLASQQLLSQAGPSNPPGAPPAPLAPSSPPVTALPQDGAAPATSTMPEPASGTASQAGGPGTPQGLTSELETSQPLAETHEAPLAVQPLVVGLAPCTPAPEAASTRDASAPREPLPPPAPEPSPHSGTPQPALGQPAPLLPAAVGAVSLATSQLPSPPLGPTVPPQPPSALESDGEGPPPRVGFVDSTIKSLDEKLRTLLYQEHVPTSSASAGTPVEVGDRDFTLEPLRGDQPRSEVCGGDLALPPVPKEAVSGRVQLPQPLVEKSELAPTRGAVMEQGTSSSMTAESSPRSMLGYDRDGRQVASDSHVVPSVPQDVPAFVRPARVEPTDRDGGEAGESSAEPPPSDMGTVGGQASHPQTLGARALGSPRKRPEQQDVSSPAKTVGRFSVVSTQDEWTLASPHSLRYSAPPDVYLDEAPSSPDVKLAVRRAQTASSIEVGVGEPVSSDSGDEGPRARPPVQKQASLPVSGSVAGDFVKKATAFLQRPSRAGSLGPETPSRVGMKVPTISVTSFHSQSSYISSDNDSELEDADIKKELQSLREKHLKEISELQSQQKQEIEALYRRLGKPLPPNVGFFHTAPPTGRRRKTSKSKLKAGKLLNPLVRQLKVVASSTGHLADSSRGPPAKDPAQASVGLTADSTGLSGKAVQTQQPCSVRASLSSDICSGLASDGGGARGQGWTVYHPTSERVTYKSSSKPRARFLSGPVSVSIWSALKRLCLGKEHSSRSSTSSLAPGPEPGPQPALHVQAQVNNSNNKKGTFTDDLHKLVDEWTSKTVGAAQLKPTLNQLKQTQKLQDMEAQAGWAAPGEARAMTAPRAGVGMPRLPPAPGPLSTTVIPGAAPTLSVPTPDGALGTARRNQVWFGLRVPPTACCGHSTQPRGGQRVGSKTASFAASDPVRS

SMILES	remaining binding at 1 µM [1]	remaining binding at 1 µM [2]	remaining binding at 1 µM [3]
Cc1ccc(C(=O)Nc2ccc(CN3CCN(C)CC3)c(C(F)(F)F)c2)cc1C#Cc1cnc2c(Nc3cnn(C)c3)cccn12 [Example 1, 4-methyl-3-((8-((1-methyl-1H-pyrazol-4-yl)amino)imidazo[1,2-a]pyridin-3-yl)ethynyl)-N-(4-((4-methylpiperazin-1-yl)methyl)-3-(trifluoromethyl)phenyl)benzamide]	0%	14%	82%
Cc1cn(-c2cc(NC(=O)c3ccc(C)c(C#Cc4cnc5c(Nc6cnn(C)c6)cccn45)c3)cc(C(F)(F)F)c2)cn1 [Example 12, 4-methyl-N-(3-(4-methyl-1H-imidazol-1-yl)-5-(trifluoromethyl)phenyl)-3-((8-((1-methyl-1H-pyrazol-4-yl)amino)imidazo[1,2-a]pyridin-3-yl)ethynyl)benzamide]	7%	25%	100%
Cc1ccc(NC(=O)C2(C(=O)Nc3ccc(F)cc3)CC2)cc1C#Cc1cnc2c(Nc3cnn(C(C)C)c3)cccn12 [Example 78]	3%	100%	100%
